Numbers after ± are expanded uncertainties.
Settings: 101.33 kPa, Crystal 3; for molar entropy: relaxation calorimeter

[O-2].[O-2].[Ti+4] [titanium(IV) oxide]
Settings	molar entropy [J/K/mol]
0.5 K	0.000413 ± 3.9e-05
1 K	0.000882 ± 7.5e-05
1.5 K	0.00146 ± 0.00012
2 K	0.00221 ± 0.00018
2.5 K	0.00316 ± 0.00026
3 K	0.00439 ± 0.00036
3.5 K	0.00591 ± 0.00048
4 K	0.00779 ± 0.00063
4.5 K	0.01 ± 0.0008
5 K	0.0127 ± 0.001
5.5 K	0.0158 ± 0.0013
6 K	0.0194 ± 0.0016
6.5 K	0.0234 ± 0.0019
7 K	0.0279 ± 0.0022
7.5 K	0.0328 ± 0.0026
8 K	0.0383 ± 0.0031
8.5 K	0.0442 ± 0.0035
9 K	0.0506 ± 0.0041
9.5 K	0.0575 ± 0.0046
10 K	0.0649 ± 0.0052
11 K	0.081 ± 0.0065
12 K	0.0989 ± 0.0079
13 K	0.119 ± 0.01
14 K	0.141 ± 0.011
15 K	0.164 ± 0.013
16 K	0.19 ± 0.015
17 K	0.218 ± 0.017
18 K	0.248 ± 0.02
19 K	0.28 ± 0.022
20 K	0.314 ± 0.025
25 K	0.524 ± 0.042
30 K	0.798 ± 0.064
35 K	1.14 ± 0.09
40 K	1.55 ± 0.12
45 K	2.02 ± 0.16
50 K	2.55 ± 0.2
55 K	3.15 ± 0.25
60 K	3.8 ± 0.3
65 K	4.5 ± 0.36
70 K	5.25 ± 0.42
75 K	6.04 ± 0.48
80 K	6.87 ± 0.55
85 K	7.74 ± 0.62
90 K	8.65 ± 0.69
95 K	9.59 ± 0.77
100 K	10.56 ± 0.85
110 K	12.56 ± 1
120 K	14.64 ± 1.2
130 K	16.77 ± 1.3
140 K	18.94 ± 1.5
150 K	21.13 ± 1.7
160 K	23.34 ± 1.9
170 K	25.56 ± 2
180 K	27.77 ± 2.2
190 K	29.99 ± 2.4
200 K	32.19 ± 2.6
210 K	34.38 ± 2.8
220 K	36.55 ± 2.9
230 K	38.69 ± 3.1
240 K	40.82 ± 3.3
250 K	42.91 ± 3.4
260 K	44.98 ± 3.6
270 K	47.03 ± 3.8
273.15 K	47.66 ± 3.8
280 K	49.04 ± 3.9
290 K	51.02 ± 4.1
298.15 K	52.61 ± 4.2
300 K	52.97 ± 4.2
305 K	53.94 ± 4.3

Settings	mass density [kg/m3]
298.15 K, X-ray diffraction	4130 ± 20

Reference: the NIST ThermoML archive (doi:10.1016/j.jct.2015.09.018)
